Test results reported in patent US12398120B2, “Substituted hydantoinamides as ADAMTS7 antagonists” (BAYER AKTIENGESELLSCHAFT, priority 2019, dated 2025).

What follows are molecules tested against ADAMTS4 (Homo sapiens (Human), UniProt O75173) (assay: Selectivity assay for ADAMTS-7 modulators: ADAMTS4 (FRET substrate)). Settings: ADAMTS4 (R&D 4307-AD) 50 nM, substrate Dabcyl-EEVKAKVQPY-Glu(Edans)-NH2 1 μM, 120 min, 32° C.
Type: biochemical
Summary of the method: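 Human ADAMTS4 with compound in DMSO, or DMSO control; reaction started by adding FRET substrate in reaction buffer. Fluorescence increase measured at substrate-specific wavelengths. IC50 derived from % inhibition of enzyme activity versus compound concentration.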

Sequence of ADAMTS4 (O75173 213-685): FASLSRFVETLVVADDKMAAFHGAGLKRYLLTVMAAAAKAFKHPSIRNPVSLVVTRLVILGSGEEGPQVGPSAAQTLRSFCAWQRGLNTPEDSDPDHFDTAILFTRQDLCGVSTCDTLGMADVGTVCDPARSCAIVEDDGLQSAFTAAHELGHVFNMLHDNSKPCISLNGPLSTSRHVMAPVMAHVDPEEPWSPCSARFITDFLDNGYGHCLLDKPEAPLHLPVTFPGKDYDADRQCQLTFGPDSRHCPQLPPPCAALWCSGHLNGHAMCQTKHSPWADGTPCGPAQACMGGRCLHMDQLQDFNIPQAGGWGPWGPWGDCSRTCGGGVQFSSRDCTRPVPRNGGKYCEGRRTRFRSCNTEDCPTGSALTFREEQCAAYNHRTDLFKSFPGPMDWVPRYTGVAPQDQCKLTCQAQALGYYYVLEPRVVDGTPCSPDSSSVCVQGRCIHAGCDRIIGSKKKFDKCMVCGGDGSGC

IC50 [µM]	SMILES
2	Cc1ccc(C(=O)NCC2(C3CCC3)NC(=O)NC2=O)c(-c2ccc(C(F)(F)F)cc2)c1 (stereo not drawn) [Example 238, Ent-N-[(4-Cyclobutyl-2,5-Dioxoimidazolidin-4-Yl)Methyl]-5-Methyl-4′-(Trifluoromethyl)[Biphenyl]-2-Carboxamide]
> 50	O=C1NC(=O)C(CNC(=O)c2ccc(F)cc2-c2ccc(C(F)(F)F)cc2)(C2CCC2)N1 (stereo not drawn) [Example 239, Ent-N-[(4-Cyclobutyl-2,5-Dioxoimidazolidin-4-Yl)Methyl]-5-Fluoro-4′-(Trifluoromethyl)[Biphenyl]-2-Carboxamide]
10	O=C1NC(=O)C(CNC(=O)c2ccccc2-c2ccc(C(F)(F)F)cc2)(c2ncccc2C(F)(F)F)N1 (stereo not drawn) [Example 244, Ent-N-({2,5-Dioxo-4-[3-(Trifluoromethyl)Pyridin-2-Yl]Imidazolidin-4-Yl}Methyl)-4′-(Trifluoromethyl)[Biphenyl]-2-Carboxamide]
> 50	O=C1NC(=O)C(CNC(=O)c2ccccc2-c2ccc(C(F)(F)F)cc2)(C2CC(F)(F)C2)N1 (stereo not drawn) [Example 248, Ent-N-{[4-(3,3-Difluorocyclobutyl)-2,5-Dioxoimidazolidin-4-Yl]Methyl}-4′-(Trifluoromethyl)[Biphenyl]-2-Carboxamide]
10	O=C1NC(=O)C(CNC(=O)c2ccccc2-c2ccc(C(F)(F)F)cc2)(C2(F)CC2)N1 (stereo not drawn) [Example 255, Ent-N-{[4-(1-Fluorocyclopropyl)-2,5-Dioxoimidazolidin-4-Yl]Methyl}-4′-(Trifluoromethyl)[Biphenyl]-2-Carboxamide]
> 50	O=C1NC(=O)C(CNC(=O)c2ccccc2-c2ccc(C(F)(F)F)cc2)(c2ccnn2C(F)F)N1 (stereo not drawn) [Example 261, Ent-N-({4-[1-(Difluoromethyl)-1H-Pyrazol-5-Yl]-2,5-Dioxoimidazolidin-4-Yl}Methyl)-4′-(Trifluoromethyl)[Biphenyl]-2-Carboxamide]
11	O=C1NC(=O)C(CNC(=O)c2ccccc2-c2ccc(C(F)(F)F)cc2)(c2ncsc2C(F)(F)F)N1 (stereo not drawn) [Example 264, Ent-N-({2,5-Dioxo-4-[5-(Trifluoromethyl)-1,3-Thiazol-4-Yl]Imidazolidin-4-Yl}Methyl)-4′-(Trifluoromethyl)[Biphenyl]-2-Carboxamide]
10	O=C1NC(=O)C(CNC(=O)c2cc(F)ccc2-c2ccc(C(F)(F)F)cc2)(c2ncsc2C(F)(F)F)N1 (stereo not drawn) [Example 266, Ent-N-({2,5-Dioxo-4-[5-(Trifluoromethyl)-1,3-Thiazol-4-Yl]Imidazolidin-4-Yl}Methyl)-4-Fluoro-4′-(Trifluoromethyl)[Biphenyl]-2-Carboxamide]
27	O=C1NC(=O)C(CNC(=O)c2ccc(F)cc2-c2ccc(C(F)(F)F)cc2)(c2ncsc2C(F)(F)F)N1 (stereo not drawn) [Example 268, Ent-N-({2,5-Dioxo-4-[5-(Trifluoromethyl)-1,3-Thiazol-4-Yl]Imidazolidin-4-Yl}Methyl)-5-Fluoro-4′-(Trifluoromethyl)[Biphenyl]-2-Carboxamide]
2.7	O=C1NC(=O)C(CNC(=O)c2ccccc2-c2ccc(C(F)(F)F)cc2)(c2ncsc2C2CC2)N1 (stereo not drawn) [Example 271, Ent-N-{[4-(5-Cyclopropyl-1,3-Thiazol-4-Yl)-2,5-Dioxoimidazolidin-4-Yl]Methyl}-4′-(Trifluoromethyl)[Biphenyl]-2-Carboxamide]
26.8	O=C1NC(=O)C(CNC(=O)c2ccc(F)cc2-c2ccc(C(F)(F)F)cc2)(c2ncsc2C2CC2)N1 (stereo not drawn) [Example 273, Ent-N-{[4-(5-Cyclopropyl-1,3-Thiazol-4-Yl)-2,5-Dioxoimidazolidin-4-Yl]Methyl}-5-Fluoro-4′-(Trifluoromethyl)[Biphenyl]-2-Carboxamide]
3.8	O=C1NC(=O)C(CNC(=O)c2ccccc2-c2ccc(C(F)(F)F)nc2)(c2ncsc2C2CC2)N1 (stereo not drawn) [Example 274, Ent-N-{[4-(5-Cyclopropyl-1,3-Thiazol-4-Yl)-2,5-Dioxoimidazolidin-4-Yl]Methyl}-2-[6-(Trifluoromethyl)Pyridin-3-Yl]Benzamide]
